# Reference: patent publication US20070238700A1, “N-PHENYL-1,1,1-TRIFLUOROMETHANESULFONAMIDE HYDRAZONE DERIVATIVE COMPOUNDS AND THEIR USAGE IN CONTROLLING PARASITES” (priority 2006, published 2007)
# Like-named read-outs stand apart in the source and are kept apart here.
# Key:
# Ctenocephalides felis [1] = tested on: Ctenocephalides felis
# Method in brief: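 Adult cat fleas (3–7 days post-emergence), 15 per flask in ≥4 replicates, exposed to a dried acetone residue at 1.26 μg/cm^2 on a Coatasil-treated glass flask base. Held at 25±1° C, 75±5% humidity; mortality (immobile or unable to right) scored at 8, 24 and/or 48 h.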
# Ctenocephalides felis [2] = assay: Ctenocephalides felis adulticide assay: C. felis dose response (LC50)
# Source text: c) Ctenocephalides felis Adulticide Assay: C. felis Dose Response
# The purpose of this example was to determine the LC50 when cat fleas were contacted with a glass surface treated with sample compounds or formulations prepared as described above. […] The test species was the cat flea (Ctenocephalides felis). The strain used was obtained from external suppliers as pupae and held in the laboratory under testing conditions until the adults had emerged. Fifteen (15) fleas were used in a minimum of four replicates for each dose level (total of 60 fleas per dose level). The insects were selected to be in the adult life stage, aged between 3 and 7 days post emergence.
# The compounds to be tested were dissolved in acetone just prior to testing. Samples of compounds were stored in a refrigerator (5±1° C.) unless otherwise specified. During the mortality testing, the temperature was maintained at 25±1° C. Humidity was maintained at 75±5%. The base (area=159 mm^2) of a 100 mL glass Erlenmeyer (conical) flask provided the treatment surface. Flasks were pretreated with Coatasil™ glass treatment to maximise bio-availability of test compounds by preventing them from binding to the glass surface.
# The base of the 100 mL Erlenmeyer flask was treated with 0.5 mL of test sample in acetone and gently swirled. This volume was sufficient to cover the base of the flask. Flasks were left to dry for 24 hours before flea exposure. Adult cat fleas were lightly anaesthetised by cooling and then placed into a sorting chamber, which allowed fleas to revive and jump into the Erlenmeyer flasks. Fifteen (15) adult cat fleas were collected in each flask. The top of the flasks were then covered in Parafilm™ and small holes made to allow gas exchange. A 0.5 mL volume of acetone was applied to the base of an Erlenmeyer flask and the testing proceeded in the same manner described above. Cat fleas in the treatment containers were held under testing conditions for 24 hours. Mortality resulting from the treatments was recorded at 8 and 24 hours.
# Rhipicephalus sanguineus [3] = assay: Rapid screening protocol for topical application on brown dog ticks (% mortality); design: concentration or dose not given beside the values; details: data from laboratory 2
# Description: d) Rapid Screening Protocol for Topical Application on Brown Dog Ticks (Rhipicephalus sanguineus)
# The aim of the test was to determine the presence of significant acaricidal activity in sample compounds or formulations when applied topically on brown dog ticks. A tick was defined as dead if it gave no apparent response when touched lightly and observed for 1 minute. To assess the experimental compound for acaricidal activity, a single dose level was chosen based on known results from previous experiments with a commercially available active reference compound. Both permethrin and fipronil were employed as reference compounds. The insect species tested was the Brown Dog Tick (Rhipicephalus sanguineus). Mixed sex adult ticks were used for tests. The strain used was cultured by von Berky Veterinary Services, Woody Point, QLD, AU and supplied as unfed adult ticks (mixed sex). Ticks were maintained in controlled conditions (temp. 18°±2° C., humidity 75±5% RH).
# Test compounds (formulations or active ingredients) were stored in a refrigerator (5±1° C.) unless otherwise specified. Temperature was maintained at 25±1° C. and the humidity was ambient. The screening dose chosen was higher than that known to kill 90% of insects (LD90) using the reference compound. In the case of topical application of active compounds on adult ticks, the reference compound was fipronil and the dose chosen was 10 μg of active per tick (=10 μg of fipronil/1 μl of acetone). Ticks were each treated on the abdomen with 1 μL of a single dose level of test sample in acetone; ten ticks were treated with solvent only (acetone) in each test. Tests were replicated 4 times (total of 40 ticks treated). Ticks were held in recovery containers maintained under appropriate rearing conditions for 24 hours. Mortality resulting from the treatments was recorded at 24 hours. Pooled 24 hour mortality data were converted to percentages.
# Rhipicephalus sanguineus [4] = assay: Dose response protocol for topical application on brown dog ticks (LD50); details: 24 h mortality, probit analysis
# Description: e) Dose response protocol for topical application on brown dog ticks (Rhipicephalus sanguineus): The test determines the level of insecticidal activity of sample compounds or formulations when applied topically on brown dog ticks. Sample compounds were stored prior to use in a freezer (−5±1° C.), unless otherwise specified.
# • Mortality: A tick is defined as dead after it gives no apparent response when touched lightly or gently breathed upon, while observed for 30 seconds. • LD50 (Lethal Dose 50): The dose of a topically applied treatment at which 50% of the dog ticks are killed. • Reference compound: To assess an experimental compound for significant acaricidal activity a single dose level is chosen, which is based upon known results from previous experiments using a commercially available active i.e., a reference compound. The reference compound selected is one in common use, and one that has a similar mode of action against the Brown Dog Tick (i.e., the test species), • Recovery container: A recovery container consists of a 500 ml round plastic container measuring 115 mm diameter and 70 mm height, with a tight fitting lid that has 10 small (˜1 mm) holes inserted for air exchange. A 90 mm diameter piece of filter paper was placed on the bottom of the container and moistened with 1 mL of distilled water.
# Adult, mixed sex, Brown Dog Ticks (Rhipicephalus sanguineus) were reared as follows: (i) cultured, (ii) transferred unfed, to a testing laboratory, and (iii) then maintained under controlled conditions (i.e., temp. 18°±2° C., humidity 75±5% RH). The ticks used were selected for vigor prior to testing, i.e., capable of actively walking and responsive to being touched or gently breathed upon.
# During the testing, the temperature was maintained at 25±1° C. and the humidity was ambient. Seven dose levels (concentrations) of sample compound, in the form of serial dilutions in acetone, were derived from a pilot study and covered a range that produced very low to very high mortality. Groups of ten ticks were treated topically (on the abdomen) with 1 μL of a single dose level of the sample compound. Each test was replicated four times, i.e., employing a total of 40 ticks per dose level of each sample compound. As a control, ten ticks were treated with solvent only (acetone) for each test. Following the treatment, the ticks were held in recovery containers maintained under appropriate rearing conditions for 24 hours. Mortality resulting from the treatments was recorded at 24 hours. […] Press, London (1971).]
SMILES,C. felis Mortality (%) 24 h (Ctenocephalides felis [1]) [%],C. felis Mortality (%) 48 h (Ctenocephalides felis [1]) [%],C. felis LC50 (Ctenocephalides felis [2]) [ppm],R. sanguineus Mortality (%) 24 h (Rhipicephalus sanguineus [3]) [%],R. sanguineus LD50 (Rhipicephalus sanguineus [4]) [μg/tick],"C. felis Mortality (%) 24 h (Ctenocephalides felis [1]; 24 h, data from laboratory 1) [%]","C. felis Mortality (%) 48 h (Ctenocephalides felis [1]; 48 h, data from laboratory 1) [%]",C. felis LC50 (Ctenocephalides felis [2]; data from laboratory 1) [ppm],C. felis Mortality (%) 8 h (Ctenocephalides felis [1]) [%]
CCN(N=C(C)c1cc(Cl)ccc1NS(=O)(=O)C(F)(F)F)c1ccc(Cl)cc1Cl [Compound 30],100,100,5.2,90,8.5,,,,
CCN(N=C(C)c1cc(Cl)ccc1NS(=O)(=O)C(F)(F)F)c1ccccc1 [Compound 34],,,,100,3.6,100,100,0.97,
CCC(=NN1CCOC1=O)c1cc(Cl)ccc1NS(=O)(=O)C(F)(F)F [Compound 35],100,100,4.3,100,1.5,,,,
CCC(=NN1CCOCC1)c1cc(Cl)ccc1NS(=O)(=O)C(F)(F)F [Compound 36],100,100,2.5,100,1.8,,,,
CCN(N=C(C)c1cc(Cl)ccc1NS(=O)(=O)C(F)(F)F)c1cccc(Cl)c1 [Compound 38],100,100,2.5,98,3.6,,,,
CCN(N=C(C)c1cc(Cl)ccc1NS(=O)(=O)C(F)(F)F)c1ccc(F)cc1 [Compound 39],100,100,0.14,100,3.6,,,,
CCCN(N=C(C)c1cc(Cl)ccc1NS(=O)(=O)C(F)(F)F)c1ccc(C(F)(F)F)cc1 [Compound 41],94,100,0.44,100,3.8,,,,
CCN(N=C(C)c1cc(Cl)ccc1NS(=O)(=O)C(F)(F)F)c1ccccc1F [Compound 43],90,100,0.35,100,3.0,,,,
CC(=NN(c1ccc(F)cc1)C(C)C)c1cc(Cl)ccc1NS(=O)(=O)C(F)(F)F [Compound 48],100,,0.64,80,6.3,,,,95
CC(=NN(C)c1ccccc1F)c1cc(Cl)ccc1NS(=O)(=O)C(F)(F)F [Compound 49],100,,,100,1.6,,,0.31,100
CC(=NN(C)c1cccc(Cl)c1)c1cc(Cl)ccc1NS(=O)(=O)C(F)(F)F [Compound 51],100,,0.82,100,2.6,,,,100
CCN(N=C(C)c1cc(Cl)ccc1NS(=O)(=O)C(F)(F)F)c1ccc(Br)cc1 [Compound 54],100,,1.6,95,5.6,,,,95
CC(=NN1CC(=O)NC1=O)c1cc(Cl)ccc1NS(=O)(=O)C(F)(F)F [Compound 55],100,,,100,1.7,,,2.5,100
CC(=NN(C)C(=O)c1ccc(Cl)cc1)c1cc(Cl)ccc1NS(=O)(=O)C(F)(F)F [Compound 59],100,,2.9,100,1.8,,,,100
CCC(=NNC(=O)c1ccc(Cl)cc1)c1cc(Cl)ccc1NS(=O)(=O)C(F)(F)F [Compound 60],100,,4.1,75,7.1,,,,60
CC(=NN(C)C(=O)c1ccc(Cl)cc1Cl)c1cc(Cl)ccc1NS(=O)(=O)C(F)(F)F [Compound 62],100,,2.2,100,1.6,,,,100
CCN(N=C(C)c1cc(Cl)ccc1NS(=O)(=O)C(F)(F)F)c1cc(Cl)cc(Cl)c1 [Compound 70],100,,1.8,100,4.1,,,,95
CCN(N=C(C)c1cc(Cl)ccc1NS(=O)(=O)C(F)(F)F)c1ccc(Cl)c(Cl)c1 [Compound 71],100,,2.5,98,4.2,,,,94
CCCN(N=C(C)c1cc(Cl)ccc1NS(=O)(=O)C(F)(F)F)c1cccc(F)c1 [Compound 72],100,,1.5,100,3.1,,,,100
CCCN(N=C(C)c1cc(Cl)ccc1NS(=O)(=O)C(F)(F)F)c1ccc(C)cc1 [Compound 73],100,,2.1,88,5.3,,,,96
CC(=NN(C)c1cccc(F)c1)c1cc(Cl)ccc1NS(=O)(=O)C(F)(F)F [Compound 74],100,,0.76,100,2.0,,,,100
